Measurements taken from PubChem BioAssay AID248 (DTP/NCI, 2004).
“And” between values parts separate entries of the source, which are not always exact repeats. Equal values may be shown once. Toxic doses and inconclusive results are not listed.

Test system: L1210 leukemia ip in BDF1 mice, survival T/C
Experiment: NCI In Vivo Anticancer Drug Screen. Data for tumor model L1210 Leukemia (intraperitoneal) in B6D2F1 (BDF1) mice
Details: endpoint: mean survival time, higher = longer survival
In short: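 Transplanted-tumor mice were given test agent; controls received vehicle only. Survival readings from the two groups were divided (treated over control).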

[1] = dose: 50.0 mg/kg/injection, schedule: Q04DX003 (ip), vehicle: saline
[2] = dose: 100.0 mg/kg/injection, schedule: Q01DX001 (ip), vehicle: saline
[3] = dose: 100.0 mg/kg/injection, schedule: Q01DX009 (ip), vehicle: saline
[4] = dose: 100.0 mg/kg/injection, schedule: Q04DX003 (ip), vehicle: saline
[5] = dose: 200.0 mg/kg/injection, schedule: Q01DX001 (ip), vehicle: saline
[6] = dose: 200.0 mg/kg/injection, schedule: Q01DX009 (ip), vehicle: saline
[7] = dose: 200.0 mg/kg/injection, schedule: Q04DX003 (ip), vehicle: saline
[8] = dose: 400.0 mg/kg/injection, schedule: Q01DX001 (ip), vehicle: saline
[9] = dose: 100.0 mg/kg/injection, schedule: Q01DX001 (ip), vehicle: carboxymethylcellulose (CMC)
[10] = dose: 200.0 mg/kg/injection, schedule: Q01DX001 (ip), vehicle: carboxymethylcellulose (CMC)
[11] = dose: 400.0 mg/kg/injection, schedule: Q01DX009 (ip), vehicle: saline
[12] = dose: 400.0 mg/kg/injection, schedule: Q04DX003 (ip), vehicle: saline
[13] = dose: 100.0 mg/kg/injection, schedule: Q01DX009 (ip), vehicle: saline with Tween-80
[14] = dose: 200.0 mg/kg/injection, schedule: Q01DX009 (ip), vehicle: saline with Tween-80
[15] = dose: 400.0 mg/kg/injection, schedule: Q01DX009 (ip), vehicle: saline with Tween-80

COc1cccc(N=Nc2c(N)nc(N)[nH]c2=O)c1
T/C (dose: 50.0 mg/kg/injection, schedule: Q01DX009 (ip), vehicle: saline): 90 % of control
T/C [1]: 101 % of control
T/C [2]: 104 % of control
T/C [3]: 92 % of control
T/C [4]: 98 % of control
T/C [5]: 107 % of control
T/C [6]: 95 % of control
T/C [7]: 102 % of control
T/C [8]: 104 % of control

CSc1ncnc2c1ncn2N(CCCCN=C=S)C(C)=O
T/C (dose: 12.5 mg/kg/injection, schedule: Q01DX001 (ip), vehicle: saline with Tween-80): 107 % of control
T/C (dose: 25.0 mg/kg/injection, schedule: Q01DX001 (ip), vehicle: saline with Tween-80): 98 % of control
T/C (dose: 50.0 mg/kg/injection, schedule: Q01DX001 (ip), vehicle: saline with Tween-80): 103 % of control

OCCN1CCN(CCCN2c3ccccc3Oc3ccc(C(F)(F)F)cc32)CC1
T/C (dose: 25.0 mg/kg/injection, schedule: Q04DX003 (ip), vehicle: saline): 92 % of control
T/C [1]: 106 % of control

CC(C)=CCC(N)C(C)c1ccccc1 (centres undefined)
T/C (dose: 12.5 mg/kg/injection, schedule: Q01DX009 (ip), vehicle: Klucel (hydroxypropylcellulose) (HPC)): 96 % of control
T/C (dose: 25.0 mg/kg/injection, schedule: Q01DX009 (ip), vehicle: Klucel (hydroxypropylcellulose) (HPC)): 98 % of control
T/C (dose: 25.0 mg/kg/injection, schedule: Q04DX002 (ip), vehicle: Klucel (hydroxypropylcellulose) (HPC)): 94 % of control
T/C (dose: 50.0 mg/kg/injection, schedule: Q01DX009 (ip), vehicle: Klucel (hydroxypropylcellulose) (HPC)): 104 % of control
T/C (dose: 50.0 mg/kg/injection, schedule: Q04DX002 (ip), vehicle: Klucel (hydroxypropylcellulose) (HPC)): 105 % of control
T/C (dose: 100.0 mg/kg/injection, schedule: Q04DX002 (ip), vehicle: Klucel (hydroxypropylcellulose) (HPC)): 102 % of control

CCC(CC)(CC#N)C1CCCCC1
T/C (dose: 50.0 mg/kg/injection, schedule: Q01DX001 (ip), vehicle: carboxymethylcellulose (CMC)): 98 % of control
T/C [9]: 104 % of control
T/C [10]: 98 % of control
T/C (dose: 400.0 mg/kg/injection, schedule: Q01DX001 (ip), vehicle: carboxymethylcellulose (CMC)): 104 % of control

CC1(COCCOCC2(C)CO2)CO1 (centres undefined)
T/C [4]: 97 % of control
T/C (dose: 180.0 mg/kg/injection, schedule: Q01DX009 (ip), vehicle: saline): 106 % of control and 108 % of control
T/C [7]: 103 % of control
T/C (dose: 266.0 mg/kg/injection, schedule: Q01DX009 (ip), vehicle: saline): 112 % of control
T/C [11]: 150 % of control

CN(N)C(=O)Nc1ccc(Cl)c(Cl)c1
T/C (dose: 75.0 mg/kg/injection, schedule: Q01DX001 (ip), vehicle: carboxymethylcellulose (CMC)): 110 % of control
T/C (dose: 150.0 mg/kg/injection, schedule: Q01DX001 (ip), vehicle: carboxymethylcellulose (CMC)): 113 % of control

COc1ccc(OC)c(/C=C2\N=C(c3ccccc3)OC2=O)c1
T/C (dose: 100.0 mg/kg/injection, schedule: Q01DX001 (ip), vehicle: acetone): 97 % of control
T/C [3]: 91 % of control
T/C [4]: 100 % of control
T/C (dose: 200.0 mg/kg/injection, schedule: Q01DX001 (ip), vehicle: acetone): 101 % of control
T/C [6]: 94 % of control
T/C [7]: 96 % of control
T/C (dose: 400.0 mg/kg/injection, schedule: Q01DX001 (ip), vehicle: acetone): 92 % of control
T/C [11]: 93 % of control
T/C [12]: 98 % of control

COc1c(C(C)(C)C)cc(/C=C(\NC(=O)c2ccccc2)C(=O)O)cc1C(C)(C)C
T/C (dose: 100.0 mg/kg/injection, schedule: Q01DX001 (ip), vehicle: Klucel (hydroxypropylcellulose) (HPC)): 98 % of control
T/C (dose: 200.0 mg/kg/injection, schedule: Q01DX001 (ip), vehicle: Klucel (hydroxypropylcellulose) (HPC)): 92 % of control

NC(=O)C(N)Cc1ccc(O)c(O)c1 (centres undefined)
T/C [3]: 107 % of control
T/C [4]: 102 % of control
T/C [6]: 102 % of control
T/C [7]: 98 % of control
T/C [11]: 109 % of control
T/C [12]: 115 % of control
T/C (dose: 800.0 mg/kg/injection, schedule: Q01DX009 (ip), vehicle: saline): 103 % of control and 114 % of control
T/C (dose: 1600.0 mg/kg/injection, schedule: Q01DX009 (ip), vehicle: saline): 104 % of control

NC(=O)c1nn(C2OC(CO)C(O)C2O)c2ncnc(N)c12 (centres undefined)
T/C (dose: 50.0 mg/kg/injection, schedule: Q01DX005 (ip), vehicle: saline): 236 % of control
T/C (dose: 100.0 mg/kg/injection, schedule: Q01DX005 (ip), vehicle: saline): 258 % of control
T/C (dose: 200.0 mg/kg/injection, schedule: Q01DX005 (ip), vehicle: saline): 236 % of control

NC(CCO)C(=O)O (centres undefined)
T/C (dose: 50.0 mg/kg/injection, schedule: Q04DX002 (ip), vehicle: saline): 96 % of control
T/C (dose: 100.0 mg/kg/injection, schedule: Q04DX002 (ip), vehicle: saline): 96 % of control
T/C (dose: 200.0 mg/kg/injection, schedule: Q04DX002 (ip), vehicle: saline): 100 % of control

COc1cc([N+](C)(C)C)nc(OC)n1
T/C (dose: 22.0 mg/kg/injection, schedule: Q01DX Z (ip), vehicle: saline): 98 % of control
T/C (dose: 34.0 mg/kg/injection, schedule: Q01DX Z (ip), vehicle: saline): 110 % of control
T/C (dose: 50.0 mg/kg/injection, schedule: Q01DX Z (ip), vehicle: saline): 104 % of control

CCCCc1ccncc1
T/C (dose: 5.0 mg/kg/injection, schedule: Q01DX001 (ip), vehicle: saline): 102 % of control
T/C (dose: 10.0 mg/kg/injection, schedule: Q01DX001 (ip), vehicle: saline): 100 % of control
T/C (dose: 20.0 mg/kg/injection, schedule: Q01DX001 (ip), vehicle: saline): 100 % of control
T/C (dose: 40.0 mg/kg/injection, schedule: Q01DX001 (ip), vehicle: saline): 90 % of control
T/C (dose: 80.0 mg/kg/injection, schedule: Q01DX001 (ip), vehicle: saline): 93 % of control
T/C [2]: 98 % of control

COc1ccc(OC)c(NC(=S)N/N=C/c2cccc3ccccc23)c1
T/C [13]: 100 % of control
T/C [14]: 95 % of control
T/C [15]: 100 % of control

CCCC(=O)NC1CCC(CC2CCCCC2)CC1 (centres undefined)
T/C (dose: 50.0 mg/kg/injection, schedule: Q01DX009 (ip), vehicle: other): 92 % of control
T/C (dose: 100.0 mg/kg/injection, schedule: Q01DX009 (ip), vehicle: other): 106 % of control
T/C (dose: 100.0 mg/kg/injection, schedule: Q04DX003 (ip), vehicle: other): 100 % of control
T/C (dose: 200.0 mg/kg/injection, schedule: Q01DX009 (ip), vehicle: other): 98 % of control
T/C (dose: 200.0 mg/kg/injection, schedule: Q04DX003 (ip), vehicle: other): 100 % of control

COc1ccc(OC)c2c1CCCC2
T/C (dose: 100.0 mg/kg/injection, schedule: Q01DX009 (ip), vehicle: Klucel (hydroxypropylcellulose) (HPC)): 106 % of control
T/C (dose: 200.0 mg/kg/injection, schedule: Q01DX009 (ip), vehicle: Klucel (hydroxypropylcellulose) (HPC)): 117 % of control

O=C1C(=O)c2ccccc2C(O)=C1C(C1=C(O)c2ccccc2C(=O)C1=O)c1ccc(Cl)cc1Cl
T/C (dose: 75.0 mg/kg/injection, schedule: Q01DX001 (ip), vehicle: other): 91 % of control
T/C (dose: 150.0 mg/kg/injection, schedule: Q01DX001 (ip), vehicle: other): 91 % of control
T/C (dose: 300.0 mg/kg/injection, schedule: Q01DX001 (ip), vehicle: other): 107 % of control

OC(Cc1ccccc1)c1ccccc1 (centres undefined)
T/C (dose: 50.0 mg/kg/injection, schedule: Q01DX001 (ip), vehicle: saline): 100 % of control
T/C [2]: 100 % of control
T/C [13]: 89 % of control
T/C [5]: 93 % of control
T/C [14]: 98 % of control
T/C [8]: 93 % of control
T/C [15]: 95 % of control

O=C(O)c1cc(S(=O)(=O)Cl)ccc1Cl
T/C (dose: 50.0 mg/kg/injection, schedule: Q04DX003 (ip), vehicle: Klucel (hydroxypropylcellulose) (HPC)): 105 % of control
T/C [9]: 95 % of control
T/C (dose: 100.0 mg/kg/injection, schedule: Q04DX003 (ip), vehicle: Klucel (hydroxypropylcellulose) (HPC)): 92 % of control
T/C [10]: 104 % of control
